Entries after “also recorded” stand apart in the source; their conditions may differ.
What was measured:
SH-SY5Y (neuroblastoma) = experiment: Autophagy induction in SH-SY5Y; format: cell-based
Description: The increased level of LC3-II, a marker of autophagosome was examined by Western blot and immunocytochemistry. The increase of autophagosomes and autolysosomes in HEK293 cells stably expressing mRFP-GFP-LC3, a dual-tag reporter of autophagy, was examined following humanin treatment. In addition, the signaling pathways activated by humanin using a phospho-antibody array in SH-SY5Y cells was investigated. […] Both activation and suppression of autophagy are involved in cancer pathogenesis and treatment, depending on the context.

[1] = test system: phosphorylated-AMPK (p-AMPK); experiment: Immunohistochemistry of lung metastases: p-AMPK; format: in vivo, mouse; settings: mean±SD; CP 200 mg/kg single IP; HNG 5 mg/kg daily IP 14 days
Experimental: Methods: Adult male mouse (n=5/group) were seeded with mouse B16 melanoma cells (100,000 cells/mouse) via tail vein on day 1. One week after melanoma cell inoculation, mice were treated either with a single intraperitoneal injection (IP) of CP (200 mg/kg), or daily IP injections of HNG (5 mg/kg), or both for 14 days. Mice were sacrificed at day 21 and lungs were fixed in formaldehyde. Immunohistochemistry was performed on lung metastases with antibodies against phosphorylated-AMPK (p-AMPK), p-4E-BP1 (downstream effector of mTOR) and Ki-67 antigen (a marker of cell proliferation).

ovaries = format: in vivo; settings: day 14; HNG 5 mg/kg/day IP; CP 100 mg/Kg single IP
Experimental: A mouse mammary cancer model was used which utilizes 4T1 cells transfected with the luciferase gene. Growth and size of 4T1 mammary tumors were detected by bioluminescence imaging (IVIS Luminia II, Perkin Elmer, Waltham, Mass.). Mice (n=5 to 7 per group) were inoculated with 1×10^6 4 T1 cells into the right third mammary gland, and 7 days later they were left untreated or treated with HNG (5 mg/kg/day IP), CP (100 mg/Kg single IP) or HNG+CP for 14 days. Animals were sacrificed and both ovaries were removed from each mouse on day 14 after the start of treatment. Serial 5-micrometer sections were made. Every 5th section was examined and the number of primordial, primary, and secondary follicles counted (Kim S Y, et al., 2013; Bristol-Gould S K, et al., 2006; Roti Roti E C, et al., 2012). In addition, TUNEL staining for apoptotic cells and oocytes was quantified (Perez G I, et al., 1997; Ben-Aharon I, et al., 2010).

male germ cells = format: in vivo; settings: B16 tumor-bearing mice
Experimental: (§1) A total of 25 young adult mice (10-12 weeks) were randomly divided into 5 groups (n=5 per group). Five mice were used as control. Twenty mice were inoculated intravenously with B16 murine melanoma cells (2×10^5 cells/mouse). Among these 20 tumor-inoculated mice, 5 mice received no further treatment. After one week, the remaining 15 mice were divided into 3 groups and injected with: 1) HNG daily IP (5 mg/Kg body weight) for 2 weeks; 2) CP (200 mg/Kg body weight IP single injection); 3) combined CP with HNG treatment (same doses as above). All mice were sacrificed 3 weeks after tumor inoculation, and 2 weeks after HNG and/or CP treatment. The animals were sacrificed with 5% pentobarbital (200 mg/kg body weight) IP injection after which blood was collected from the right atrium of the heart. One of the testes from each mouse was immersed fixed in Bouin's solution, and the mice were perfused with saline and subsequently perfuse-fixed with 5% glutaraldehyde in 0.05 M cacodylate buffer (pH 7.4). The lungs were dissected out and post fixed in 5% glutaraldehyde solution for 24 hours and stored in cacodylate buffer at 4° C. for the subsequent tumor count (Lue, et al., 2010; Lue, et al., 2009).

IGF-1 = experiment: Plasma IGF-1 levels by ELISA after multiple doses of CP; format: in vivo, mouse; settings: 28 days; HNG 10 mg/kg BW daily subcutaneously; CP 150 mg/kg BW IP, 6 doses
Experimental: The objective of this study was to investigate whether HNG has protective effect on sperm output after multiple doses of CP in mice. Thirty adult male mice (C57BL/6J) were randomized into 4 groups: 1) 5 as control; 2) 5 received daily subcutaneously injection of HNG (10 mg/kg BW); 3) 10 were given 6 doses of CP (150 mg/kg BW) intraperitoneally at 5-day intervals; 4) 10 received both HNG and CP. All mice were killed at 28 days. Plasma HNG and IGF-1 levels were measured by ELISAs. The cauda epididymal sperm count was performed using a hemocytometer.

[2] = test system: B16 murine melanoma cells; experiment: Metastatic lung tumors in mouse B16 melanoma model (Experiments 3 and 4); format: in vivo
Experimental: as §1
Experiment 3 was repeated after inoculation of B16 melanoma tumor at week 1 and then treated with the following treatment starting at week 2 (n=5 mice per group): 1). No treatment; 2). HNG IP injections 5 mg/Kg daily; 3) CP 200 mg/Kg single IP injection; 4) HNG 5 mg/Kg/day+CP; 5). HNG IP injections 15 mg/Kg daily; and 6). HNG 15 mg/Kg/day+CP. All animals were euthanized and perfused with 4% paraformaldehyde at the end of week 3. Lungs and testes were collected and processed as in experiment 3.
B16 melanoma tumors in the lung were quantified by counting the number of tumors on the surface of the lungs under stereomicroscopy (Collisson, et al., 2003; Craft, et al., 2005). The size of the tumor was measured using histomorphometry and expressed as average size of tumor. The appearance of the melanoma cells were reviewed and characterized by an expert pathologist.

[3] = Experiment 4, vs non-treated, HNG at both 5 mg/kg BW and 15 mg/kg BW, CP 200 mg/Kg

| Molecule | autophagy (SH-SY5Y (neuroblastoma)) | percent p-AMPK positive cells in metastatic lung melanoma [1] [%] | ovarian follicles in representative sections (ovaries) | testis weight (male germ cells; 2 weeks after CP 200 mg/Kg single IP) | germ cell apoptosis (percent of seminiferous tubules containing apoptotic germ cells) (male germ cells; 2 weeks after treatment, CP 200 mg/Kg single IP, HNG 5 mg/Kg daily IP) | plasma IGF-1 levels (IGF-1) [ng/mL] | size of the melanoma metastasis on the surface of the lungs ([2]; Experiment 3, vs non-treated tumor-bearing mice) | number of metastatic tumors on the surface of the lungs ([2]; Experiment 3, vs non-treated tumor-bearing mice, HNG 5 mg/Kg daily IP 2 weeks, CP 200 mg/Kg single IP) | number of lung tumors [2, 3] | size of the lung tumors [2, 3] | histology of metastatic lung melanoma cells ([2]; HNG 5 mg/kg BW, CP, or both, monohydrate) |
| --- | --- | --- | --- | --- | --- | --- | --- | --- | --- | --- | --- |
| MAPRGFSCLLLLTSEIDLPVKRRA [HN, 24-amino acid mitochondrial derived peptide] | induces autophagy |  |  |  |  |  |  |  |  |  |  |
| O=P1(N(CCCl)CCCl)NCCCO1 (centres unmarked) [CP, cyclophosphamide monohydrate] |  | 11.3±15.6 | have less secondary, but more atretic follicles | significantly decreased the testis weight | significantly increased germ cell apoptosis | 182.4 ± 10.5 | decreased number of tumors but also tumor size | decreased number of tumors | significantly decreased both the number and size of the tumors | significantly decreased both the number and size of the tumors | decreased the number of metastatic melanoma cells; also recorded: induced minor differentiation of melanoma cells |

From patent US20150374784A1, “COMPOSITIONS AND METHODS FOR REDUCING GERM CELL DEATH” (Los Angeles Biomedical Research Institute at Harbor-UCLA …, priority 2014, published 2015)
